# Results published in article PMC8623851, “The Structural Determinants for α1-Adrenergic/Serotonin Receptors Activity among Phenylpiperazine-Hydantoin Derivatives” (Molecules, 2021).
# What was measured:
# [1] = target: human 5-HT7b receptor (Homo sapiens, UniProt P34969); test: Radioligand binding assay 5-HT7 (HEK-293 membranes, [3H]-5-CT)
# [2] = target: human 5-HT6 receptor (Homo sapiens, UniProt P50406); test: Radioligand binding assay 5-HT6 (HEK-293 membranes, [3H]-LSD)
# [3] = target: α1-receptor; test: Radioligand binding assay: affinity for α1-receptor ([3H]Prazosin, rat cortex)
# Protocol: Tissue (rat cortex) was homogenized in 20 volumes of ice-cold 50 mM Tris-HCl buffer, pH 7.6, using an Ultra Turrax T25B homogenizer (IKA, Staufen, Germany). The homogenate was centrifuged at 20,000× g for 20 min. The resulting supernatant was decanted and pellet was resuspended in the same buffer and centrifuged again in the same conditions. The final pellet was resuspended in an appropriate volume of buffer (10 mg/1 mL).
# The concentrations of analyzed compounds ranged from 10^−10 to 10^−5 M.
# The incubation was terminated by rapid filtration over glass fiber filters FilterMate B (PerkinElmer, Waltham, MA, USA) using a 96-well FilterMate harvester (PerkinElmer, Waltham, MA, USA). Five rapid washes were performed with ice-cold 50 mM Tris-HCl buffer, pH 7.6.
# The FilterMate was dried in a microwave and placed in a plastic bag (PerkinElmer, Waltham, MA, USA) and soaked in 10 mL of a liquid scintillation cocktail Ultima Gold MV (PerkinElmer, Waltham, MA, USA). After even distribution of the scintillation cocktail, the filter bag was sealed.
# The radioactivity on the filter was measured by a MicroBeta TriLux 1450 scintillation counter (PerkinElmer, Waltham, MA, USA).
# Radioligand binding data were analyzed using iterative curve fitting routines GraphPad Prism 3.0 (GraphPad Software, San Diego, CA, USA) using the built-in three parameter logistic model describing ligand competition binding to radioligand-labeled sites.
# [4] = target: T1, human 5-HT1A receptor (Homo sapiens, UniProt P08908); test: Radioligand binding assay 5-HT1A (HEK-293 membranes, [3H]-8-OH-DPAT)
# T1 sequence (P08908 1-422): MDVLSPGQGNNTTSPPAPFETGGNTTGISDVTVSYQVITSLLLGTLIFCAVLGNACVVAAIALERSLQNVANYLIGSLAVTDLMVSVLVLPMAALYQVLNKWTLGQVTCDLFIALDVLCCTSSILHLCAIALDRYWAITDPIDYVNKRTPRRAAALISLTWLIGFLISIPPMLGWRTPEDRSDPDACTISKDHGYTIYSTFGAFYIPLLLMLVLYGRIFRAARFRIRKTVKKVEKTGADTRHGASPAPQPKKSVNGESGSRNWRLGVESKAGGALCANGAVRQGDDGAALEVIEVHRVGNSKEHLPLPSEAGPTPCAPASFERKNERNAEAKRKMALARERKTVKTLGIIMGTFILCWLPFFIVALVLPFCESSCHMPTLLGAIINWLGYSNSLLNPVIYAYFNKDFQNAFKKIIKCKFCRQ
# Sequence of human 5-HT6 receptor (P50406 whole entry): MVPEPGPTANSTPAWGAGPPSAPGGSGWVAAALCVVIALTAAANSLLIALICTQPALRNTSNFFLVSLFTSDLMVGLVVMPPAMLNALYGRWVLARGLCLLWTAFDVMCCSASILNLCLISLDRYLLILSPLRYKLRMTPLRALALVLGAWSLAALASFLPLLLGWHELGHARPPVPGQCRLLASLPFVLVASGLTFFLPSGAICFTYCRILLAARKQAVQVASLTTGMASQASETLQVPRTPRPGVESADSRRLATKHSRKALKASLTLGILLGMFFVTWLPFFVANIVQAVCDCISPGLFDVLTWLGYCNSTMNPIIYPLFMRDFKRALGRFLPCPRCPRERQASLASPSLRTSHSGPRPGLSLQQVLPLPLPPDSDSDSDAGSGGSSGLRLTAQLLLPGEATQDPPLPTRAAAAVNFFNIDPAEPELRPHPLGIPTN
# Sequence of human 5-HT7b receptor (P34969 1-432): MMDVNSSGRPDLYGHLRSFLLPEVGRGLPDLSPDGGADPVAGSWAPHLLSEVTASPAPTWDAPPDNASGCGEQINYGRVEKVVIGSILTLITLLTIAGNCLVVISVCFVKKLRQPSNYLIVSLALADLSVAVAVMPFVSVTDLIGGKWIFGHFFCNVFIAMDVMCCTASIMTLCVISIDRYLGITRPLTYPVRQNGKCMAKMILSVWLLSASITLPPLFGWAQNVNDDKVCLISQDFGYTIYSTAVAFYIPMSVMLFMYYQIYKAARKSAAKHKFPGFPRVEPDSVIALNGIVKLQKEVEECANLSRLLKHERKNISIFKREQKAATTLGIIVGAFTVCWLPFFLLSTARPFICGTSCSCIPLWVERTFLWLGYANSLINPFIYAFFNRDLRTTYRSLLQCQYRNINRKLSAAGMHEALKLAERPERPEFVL
SMILES,Ki [1],Ki [2],Ki [3],Ki [4],melting point
"COc1cccc(/C=C2\NC(=O)N(CC(O)CN3CCN(c4ccccc4OC)CC3)C2=O)c1 (stereo not shown) [Compound 4, (Z)-3-(2-hydroxy-3-(4-(2-methoxyphenyl)piperazin-1-yl)propyl)-5-(3-methoxybenzylidene)imidazolidine-2,4-dione]",0.283 µM,17.6 µM,0.187 ± 0.0186 µM,0.53 µM,–
"CCOc1ccccc1N1CCN(CC(O)CN2C(=O)N/C(=C\c3cccc(OC)c3)C2=O)CC1 (stereo not shown) [Compound 5, (Z)-3-(3-(4-(2-ethoxyphenyl)piperazin-1-yl)-2-hydroxypropyl)-5-(3-methoxybenzylidene)imidazolidine-2,4-dione]",0.079 µM,19.2 µM,0.0759 ± 0.0023 µM,0.557 µM,–
"COc1ccc(/C=C2\NC(=O)N(CC(O)CN3CCN(c4ccccc4OC)CC3)C2=O)cc1 (stereo not shown) [Compound 6, (Z)-3-(2-hydroxy-3-(4-(2-methoxyphenyl)piperazin-1-yl)propyl)-5-(4-methoxybenzylidene)imidazolidine-2,4-dione]",0.197 µM,20.4 µM,0.145 ± 0.0133 µM,0.282 µM,176 to 178 °C
"CCOc1ccccc1N1CCN(CC(O)CN2C(=O)N/C(=C\c3ccc(OC)cc3)C2=O)CC1 (stereo not shown) [Compound 7, (Z)-3-(3-(4-(2-ethoxyphenyl)piperazin-1-yl)-2-hydroxypropyl)-5-(4-methoxybenzylidene)imidazolidine-2,4-dione]",0.12 µM,10.2 µM,0.0991 ± 0.0113 µM,0.313 µM,–
"COc1ccc(/C=C2\NC(=O)N(CC(O)CN3CCN(c4ccccc4F)CC3)C2=O)cc1 (stereo not shown) [Compound 8, (Z)-3-(3-(4-(2-fluorophenyl)piperazin-1-yl)-2-hydroxypropyl)-5-(4-methoxybenzylidene)imidazolidine-2,4-dione]",1.04 µM,11.7 µM,0.144 ± 0.0079 µM,3.53 µM,104 to 106 °C
"CCOc1ccccc1N1CCN(CC(O)CN2C(=O)N/C(=C\c3cc(OC)c(OC)c(OC)c3)C2=O)CC1 (stereo not shown) [Compound 9, (Z)-3-(3-(4-(2-ethoxyphenyl)piperazin-1-yl)-2-hydroxypropyl)-5-(3,4,5-trimethoxybenzylidene)imidazolidine-2,4-dione]",1.25 µM,2.83 µM,0.0895 ± 0.009 µM,1.87 µM,104 to 106 °C
"COc1cccc(/C=C2\NC(=O)N(CCCN3CCN(c4ccccc4Cl)CC3)C2=O)c1 [Compound 11, (Z)-3-(3-(4-(2-chlorophenyl)piperazin-1-yl)propyl)-5-(3-methoxybenzylidene)imidazolidine-2,4-dione]",0.152 µM,1.72 µM,0.0448 ± 0.0033 µM,0.319 µM,144 to 146 °C
"CCOc1ccccc1N1CCN(CCCN2C(=O)N/C(=C\c3ccc(OC)cc3)C2=O)CC1 [Compound 13, (Z)-3-(3-(4-(2-ethoxyphenyl)piperazin-1-yl)propyl)-5-(4-methoxybenzylidene)imidazolidine-2,4-dione]",0.114 µM,> 50 µM,0.0195 ± 0.0026 µM,0.0458 µM,180 to 183 °C
"COc1ccccc1N1CCN(CCCN2C(=O)N/C(=C\c3cc(OC)c(OC)c(OC)c3)C2=O)CC1 [Compound 15, (Z)-3-(3-(4-(2-methoxyphenyl)piperazin-1-yl)propyl)-5-(3,4,5-trimethoxybenzylidene)imidazolidine-2,4-dione]",0.668 µM,12.3 µM,0.0258 ± 0.0029 µM,0.172 µM,130 to 132 °C
"Cc1ccc(N(CC2=NCCN2)c2cccc(O)c2)cc1 [fentolamine, reference compound]",–,–,0.0157 ± 0.0015 µM,–,–
